# Laboratory results: US10717716B2, “1,3,4-oxadiazole derivative compounds as histone deacetylase 6 inhibitor, and the pharmaceutical composition comprising the same” (Chong Kun Dang Pharmaceutical Corp., priority 2015, dated 2020)
# Legend:
# human recombinant HDAC1 = biological target: T1, human recombinant HDAC1 (Homo sapiens, UniProt Q13547); test: HDAC1 enzyme activity inhibition assay (HDAC Fluorimetric Drug Discovery Kit); type: biochemical; conditions: human recombinant HDAC1, Fluor de Lys substrate 10 μM, 30° C. 60 minutes
# T1 construct: purchased Enzo Life Science BML-SE456
# T1 sequence (Q13547 whole entry): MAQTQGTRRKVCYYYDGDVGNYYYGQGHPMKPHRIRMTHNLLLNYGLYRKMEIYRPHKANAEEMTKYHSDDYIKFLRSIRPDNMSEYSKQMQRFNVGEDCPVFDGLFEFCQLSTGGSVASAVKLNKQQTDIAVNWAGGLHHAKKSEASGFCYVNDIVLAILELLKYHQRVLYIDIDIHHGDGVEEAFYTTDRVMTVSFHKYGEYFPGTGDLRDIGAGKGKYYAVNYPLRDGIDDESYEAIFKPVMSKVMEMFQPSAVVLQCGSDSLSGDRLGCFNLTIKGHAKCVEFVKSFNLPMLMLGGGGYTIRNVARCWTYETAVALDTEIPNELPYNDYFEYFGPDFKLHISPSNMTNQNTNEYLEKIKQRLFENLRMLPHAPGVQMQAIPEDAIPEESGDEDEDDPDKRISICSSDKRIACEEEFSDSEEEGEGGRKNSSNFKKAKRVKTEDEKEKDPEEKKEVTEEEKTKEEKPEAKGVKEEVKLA
# Description: In order to examine the HDAC6 selectivity of the compounds of formula I of the present invention by HDAC1 and HDAC6 enzymatic activity inhibition assays, an experiment was performed using a conventional substance as a control.
# HDAC enzyme activity was measured using a HDAC Fluorimetric Drug Discovery Kit (BML-AK511, 516, Enzo Life Science). For the HDAC1 enzyme activity test, human recombinant HDAC1 (BML-SE456) was used as an enzyme source, and Fluor de Lys®-“SIRT1 (BNL-KI177) was used as a substrate. A 5-fold dilution of the compound was seeded into a 96-well plate, and then 0.3 μg of the enzyme and 10 μM of the substrate were added to each well of the plate and allowed to react at 30° C. for 60 minutes. Then, Fluor de Lys®-Developer II (BML-KI176) was added thereto and allowed to react for 30 minutes, after which the fluorescence value (Ex 360, Em 460) was measured using a multi-plate reader (Flexstation 3, Molecular Device). The HDAC6 enzyme was tested using human recombinant HDAC6 (382180) (Calbiochem) according to the same protocol as the HDAC1 enzyme activity test method. Based on the resulting values, each IC5, value was calculated using GraphPad Prism4.0 program.
# human recombinant HDAC6 = biological target: T2, human recombinant HDAC6 (Homo sapiens, UniProt Q9UBN7); test: HDAC6 enzyme activity inhibition assay (HDAC Fluorimetric Drug Discovery Kit); type: biochemical; conditions: for HDAC6 selectivity (fold): HDAC6 over HDAC1; for IC50: human recombinant HDAC6, same protocol as HDAC1, read-out: HDAC6
# T2 construct: purchased Calbiochem 382180
# T2 sequence (Q9UBN7 1-1215): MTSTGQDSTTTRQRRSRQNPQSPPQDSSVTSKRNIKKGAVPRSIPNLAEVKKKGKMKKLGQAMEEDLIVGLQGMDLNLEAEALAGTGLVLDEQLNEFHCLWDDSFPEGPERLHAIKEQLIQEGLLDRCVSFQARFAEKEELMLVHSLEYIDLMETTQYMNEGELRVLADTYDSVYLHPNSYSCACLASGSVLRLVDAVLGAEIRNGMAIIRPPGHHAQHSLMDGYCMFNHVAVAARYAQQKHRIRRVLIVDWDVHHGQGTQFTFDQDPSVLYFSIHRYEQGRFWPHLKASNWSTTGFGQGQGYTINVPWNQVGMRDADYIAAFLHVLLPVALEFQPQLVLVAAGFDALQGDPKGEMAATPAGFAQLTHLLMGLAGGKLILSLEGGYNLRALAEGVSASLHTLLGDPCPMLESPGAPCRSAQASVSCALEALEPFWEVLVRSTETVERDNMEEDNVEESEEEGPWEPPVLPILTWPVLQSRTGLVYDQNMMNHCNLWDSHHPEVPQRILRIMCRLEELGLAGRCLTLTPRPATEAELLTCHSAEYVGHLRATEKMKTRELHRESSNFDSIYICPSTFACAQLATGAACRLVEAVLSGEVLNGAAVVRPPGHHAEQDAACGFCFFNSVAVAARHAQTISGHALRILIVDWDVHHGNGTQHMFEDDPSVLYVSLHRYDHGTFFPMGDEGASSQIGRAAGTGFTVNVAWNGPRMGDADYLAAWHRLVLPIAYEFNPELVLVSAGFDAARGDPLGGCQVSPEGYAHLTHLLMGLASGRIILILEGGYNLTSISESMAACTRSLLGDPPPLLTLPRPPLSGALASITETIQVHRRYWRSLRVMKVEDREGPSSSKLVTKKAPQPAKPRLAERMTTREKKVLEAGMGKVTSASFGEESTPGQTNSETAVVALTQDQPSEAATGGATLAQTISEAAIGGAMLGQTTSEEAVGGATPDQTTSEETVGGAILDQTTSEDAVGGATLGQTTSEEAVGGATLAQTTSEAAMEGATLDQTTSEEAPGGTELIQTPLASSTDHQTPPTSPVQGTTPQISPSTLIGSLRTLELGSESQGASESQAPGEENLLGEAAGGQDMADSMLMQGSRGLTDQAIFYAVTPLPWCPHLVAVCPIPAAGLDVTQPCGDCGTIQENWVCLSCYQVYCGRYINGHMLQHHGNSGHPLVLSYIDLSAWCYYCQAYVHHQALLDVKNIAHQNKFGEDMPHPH
# How it was run: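 Fluorimetric deacetylase assay: 5-fold serial compound dilutions, 0.3 μg recombinant human enzyme (HDAC1 or HDAC6, same protocol), 10 μM Fluor de Lys-SIRT1 substrate, 60 min at 30 °C. Signal developed 30 min, measured at 360/460 nm; IC50 values derived.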
SMILES,IC50 (human recombinant HDAC1) [µM],HDAC6 selectivity (fold) (human recombinant HDAC6),IC50 (human recombinant HDAC6) [nM]
"Cc1cccc(N(Cc2ccc(-c3nnc(C(F)(F)F)o3)cc2)C(=O)N2CCS(=O)(=O)CC2)c1 [Compound 21442, N-(m-tolyl)-N-(4-(5-(trifluoromethyl)-1,3,4-oxadiazol-2-yl)benzyl)thiomorpholine-4-carboxamide 1,1-dioxide]",8.73,77,114
"O=C(N1CCS(=O)(=O)CC1)N(Cc1ccc(-c2nnc(C(F)F)o2)cc1F)c1ccccc1F [Compound 21808, N-(4-(5-(difluoromethyl)-1,3,4-oxadiazol-2-yl)-2-fluorobenzyl)-N-(2-fluorophenyl)thiomorpholine-4-carboxamide 1,1-dioxide]",42.6,2023,21
"CN(C)[C@@H]1CCN(C(=O)N(Cc2ccc(-c3nnc(C(F)F)o3)cc2F)c2ccc3cnn(C)c3c2)C1 [Compound 21736, (R)—N-(4-(5-(difluoromethyl)-1,3,4-oxadiazol-2-yl)-2-fluorobenzyl)-3-(dimethylamino)-N-(1-methyl-1H-indazol-6-yl)pyrrolidine-1-carboxamide]",17.7,432,41
"O=C(N1CCOCC1)N(Cc1ccc(-c2nnc(C(F)F)o2)cn1)c1ccc(F)cc1 [Compound 21839, N-((5-(5-(difluoromethyl)-1,3,4-oxadiazol-2-yl)pyridin-2-yl)methyl)-N-(4-fluorophenyl) morpholine-4-carboxamide]",56.7,1689,34
"COc1cccc(N(Cc2ccc(-c3nnc(C(F)(F)F)o3)cc2)C(=O)N2CCS(=O)(=O)CC2)c1 [Compound 21441, N-(3-methoxyphenyl)-N-(4-(5-(trifluoromethyl)-1,3,4-oxadiazol-2-yl)benzyl)thiomorpholine-4-carboxamide 1,1-dioxide]",2.53,18,139
"CCN1CCN(C(=O)N(Cc2ccc(-c3nnc(C(F)(F)F)o3)cc2)c2cccc(F)c2)CC1 [Compound 21865, 4-Ethyl-N-(3-fluorophenyl)-N-(4-(5-(trifluoromethyl)-1,3,4-oxadiazol-2-yl)benzyl)piperazine-1-carboxamide]",16.8,174,96
"O=C(N1CCOCC1)N(Cc1ccc(-c2nnc(C(F)(F)F)o2)cc1F)c1cccc(Cl)c1 [Compound 21854, N-(3-chlorophenyl)-N-(2-fluoro-4-(5-(trifluoromethyl)-1,3,4-oxadiazol-2-yl)benzyl)morpholine-4-carboxamide]",12.7,46,276
"CCN1CCN(C(=O)N(Cc2ccc(-c3nnc(C(F)(F)F)o3)cn2)c2ccc(F)cc2)CC1 [Compound 21870, 4-Ethyl-N-(4-fluorophenyl)-N-((5-(5-(trifluoromethyl)-1,3,4-oxadiazol-2-yl)pyridin-2-yl)methyl)piperazine-1-carboxamide]",45.1,400,113
"O=C(N1CCOCC1)N(Cc1ccc(-c2nnc(C(F)(F)F)o2)cc1F)c1ccc(F)cc1F [Compound 21859, N-(2,4-difluorophenyl)-N-(2-fluoro-4-(5-(trifluoromethyl)-1,3,4-oxadiazol-2-yl)benzyl)morpholine-4-carboxamide]",23.5,177,133
"Cn1ncc2ccc(-c3ccc(N(Cc4ccc(-c5nnc(C(F)(F)F)o5)cc4)C(=O)N4CCS(=O)(=O)CC4)cc3)cc21 [Compound 21487, N-(4-(1-methyl-1H-indazol-6-yl)phenyl)-N-(4-(5-(trifluoromethyl)-1,3,4-oxadiazol-2-yl)benzyl)thiomorpholine-4-carboxamide 1,1-dioxide]",1.95,6,344

# Now from value to molecule:
IC50 (human recombinant HDAC1) [µM],HDAC6 selectivity (fold) (human recombinant HDAC6),IC50 (human recombinant HDAC6) [nM],SMILES
7.44,20,366,"CS(=O)(=O)c1ccc(N(Cc2ccc(-c3nnc(C(F)(F)F)o3)cc2)C(=O)N2CCOCC2)cc1 [Compound 21443, N-(4-(methylsulfonyl)phenyl)-N-(4-(5-(trifluoromethyl)-1,3,4-oxadiazol-2-yl)benzyl)morpholine-4-carboxamide]"
9.43,38,249,"CCN1CCN(C(=O)N(Cc2ccc(-c3nnc(C(F)(F)F)o3)cc2F)c2cccc(OC)c2)CC1 [Compound 21872, 4-Ethyl-N-(2-fluoro-4-(5-(trifluoromethyl)-1,3,4-oxadiazol-2-yl)benzyl)-N-(3-methoxyphenyl)piperazine-1-carboxamide]"
4.42,12,369,"O=C(N1CCS(=O)(=O)CC1)N(Cc1ccc(-c2nnc(C(F)(F)F)o2)cc1)c1ccc(-c2ccccc2)cc1 [Compound 21485, N-([1,1′-biphenyl]-4-yl)-N-(4-(5-(trifluoromethyl)-1,3,4-oxadiazol-2-yl)benzyl)thiomorpholine-4-carboxamide 1,1-dioxide]"
40.9,1298,32,"O=C(N1CCS(=O)(=O)CC1)N(Cc1ccc(-c2nnc(C(F)F)o2)cn1)c1cccc(F)c1 [Compound 21830, N-((5-(5-(difluoromethyl)-1,3,4-oxadiazol-2-yl)pyridin-2-yl)methyl)-N-(3-fluorophenyl)thiomorpholine-4-carboxamide 1,1-dioxide]"
6.11,6,1010,"O=C(N1CCS(=O)(=O)CC1)N(Cc1ccc(-c2nnc(C(F)(F)F)o2)cc1)c1cccc(-c2ccccc2)c1 [Compound 21439, N-([1,1′-biphenyl]-3-yl)-N-(4-(5-(trifluoromethyl)-1,3,4-oxadiazol-2-yl)benzyl)thiomorpholine-4-carboxamide 1,1-dioxide]"
56.1,1454,39,"O=C(N1CCN(C2COC2)CC1)N(Cc1ccc(-c2nnc(C(F)F)o2)cn1)c1ccccc1 [Compound 21905, N-((5-(5-(Difluoromethyl)-1,3,4-oxadiazol-2-yl)pyridin-2-yl)methyl)-4-(oxetan-3-yl)-N-phenylpiperazine-1-carboxamide]"
76.3,1588,48,"CCN1CCN(C(=O)N(Cc2ccc(-c3nnc(C(F)F)o3)cn2)c2ccc(OC)cc2)CC1 [Compound 21894, N-((5-(5-(Difluoromethyl)-1,3,4-oxadiazol-2-yl)pyridin-2-yl)methyl)-4-ethyl-N-(4-methoxyphenyl)piperazine-1-carboxamide]"
4.75,64,73,"O=C(N1CCS(=O)(=O)CC1)N(Cc1ccc(-c2nnc(C(F)(F)F)o2)cc1F)c1ccc2c(c1)CCO2 [Compound 21543, N-(2,3-dihydrobenzofuran-5-yl)-N-(2-fluoro-4-(5-(trifluoromethyl)-1,3,4-oxadiazol-2-yl)benzyl)thiomorpholine-4-carboxamide 1,1-dioxide]"
